Measured values: US9409914B2, “Triazolo[4,5-d]pyrimidine derivatives” (Merck Patent GmbH, priority 2012, dated 2016)

Columns and labels:
[1] = target: T1, GCN2 (Homo sapiens, UniProt Q9P2K8); assay: GCN2 enzyme assay (TR-FRET Lanthascreen, phosphorylation of GFP-eIF2alpha); format: biochemical; conditions: 10 μM ATP, 80 nM GFP-eIF2alpha, 30 nM GCN2, room temperature
Method in brief: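 Two-step TR-FRET (Lanthascreen) format: GCN2 incubated at room temperature with 10 μM ATP and 80 nM GFP-labelled eIF2alpha, then stopped with EDTA. Phospho-eIF2alpha detected by Tb-labelled antibody, excitation 340 nm; activity taken from the 520/495 nm emission ratio.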
Target sequence in this assay (Q9P2K8 whole entry, species assumed): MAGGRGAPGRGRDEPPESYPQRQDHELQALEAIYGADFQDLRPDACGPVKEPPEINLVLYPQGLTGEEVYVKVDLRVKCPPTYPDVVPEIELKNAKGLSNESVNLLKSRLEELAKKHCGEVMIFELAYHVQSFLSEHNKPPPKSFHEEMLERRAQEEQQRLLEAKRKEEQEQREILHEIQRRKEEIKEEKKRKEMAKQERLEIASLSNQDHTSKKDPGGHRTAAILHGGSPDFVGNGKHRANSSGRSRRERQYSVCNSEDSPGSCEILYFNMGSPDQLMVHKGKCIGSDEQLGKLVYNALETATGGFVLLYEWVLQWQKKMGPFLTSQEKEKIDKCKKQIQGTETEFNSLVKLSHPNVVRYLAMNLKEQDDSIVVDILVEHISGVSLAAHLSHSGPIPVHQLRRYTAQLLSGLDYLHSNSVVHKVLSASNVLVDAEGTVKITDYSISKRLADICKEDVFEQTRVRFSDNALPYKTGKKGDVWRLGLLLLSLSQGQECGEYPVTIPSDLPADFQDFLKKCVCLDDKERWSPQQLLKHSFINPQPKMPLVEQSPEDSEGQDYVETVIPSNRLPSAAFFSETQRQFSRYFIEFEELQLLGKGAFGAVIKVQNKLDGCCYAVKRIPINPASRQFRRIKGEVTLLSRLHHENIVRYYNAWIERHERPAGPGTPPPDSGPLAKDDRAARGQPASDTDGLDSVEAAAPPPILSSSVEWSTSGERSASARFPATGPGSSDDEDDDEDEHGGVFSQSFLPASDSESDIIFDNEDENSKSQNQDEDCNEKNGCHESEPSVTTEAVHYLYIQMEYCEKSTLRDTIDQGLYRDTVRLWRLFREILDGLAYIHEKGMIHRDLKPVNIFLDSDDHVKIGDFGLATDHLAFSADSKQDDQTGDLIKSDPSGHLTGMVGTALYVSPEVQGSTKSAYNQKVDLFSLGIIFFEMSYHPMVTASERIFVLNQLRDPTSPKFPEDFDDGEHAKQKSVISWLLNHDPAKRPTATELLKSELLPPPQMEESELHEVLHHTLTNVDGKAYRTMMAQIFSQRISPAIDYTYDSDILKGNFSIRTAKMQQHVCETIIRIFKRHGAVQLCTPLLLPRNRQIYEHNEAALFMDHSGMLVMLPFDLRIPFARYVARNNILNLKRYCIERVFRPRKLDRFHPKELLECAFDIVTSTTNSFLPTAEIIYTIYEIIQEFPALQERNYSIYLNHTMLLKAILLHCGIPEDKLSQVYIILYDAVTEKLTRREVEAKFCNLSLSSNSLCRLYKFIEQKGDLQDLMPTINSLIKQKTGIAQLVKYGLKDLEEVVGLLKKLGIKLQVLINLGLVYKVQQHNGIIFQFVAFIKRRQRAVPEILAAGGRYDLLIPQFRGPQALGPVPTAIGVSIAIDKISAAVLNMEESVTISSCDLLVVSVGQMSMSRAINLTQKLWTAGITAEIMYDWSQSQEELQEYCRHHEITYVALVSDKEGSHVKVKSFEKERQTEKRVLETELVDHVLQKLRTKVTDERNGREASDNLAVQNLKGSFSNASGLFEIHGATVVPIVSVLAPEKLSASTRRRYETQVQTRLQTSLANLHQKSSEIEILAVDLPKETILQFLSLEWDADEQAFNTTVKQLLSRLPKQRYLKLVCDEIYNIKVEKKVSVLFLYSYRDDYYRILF

[2] = target: T1, GCN2; assay: Cellular assay for GCN2 activity (phospho-eIF2alpha immunocytochemistry, tryptophanol-stimulated U2OS cells); format: cell-based; set-up: endogenous in cells; host or cells: U2OS; conditions: 2 hours compound, then 600 μM tryptophanol 30 minutes, anti-phospho-eIF2alpha, read-out: IC50 GCN2 (cell assay)
Procedure: Cellular Assay for the Determination of Compound Activities
Human U2OS cells (2000 cells/well) are seeded into 384-well plates and incubated for 20 hours.
The next day, the cells are treated with the test compounds and incubated for 2 hours. Then, tryptophanol, at a final concentration of 600 μM, is added to the cells and those are incubated for 30 minutes.
The analysis of cellular GCN2 activities is done by immunocytochemistry. Briefly, cells are fixated on the well surfaces by formaldehyde and permeabilised with Triton X-100. The primary antibody (anti-phospho-eIF2alpha (Ser51, Cell Signalling Technology, #3398) is incubated on the treated cells for 20 hours, followed by a 60 minutes incubation of the secondary antibody (anti-rabbit-IgG-Alexa 488; Molecular Probes #11008). The analysis and quantification of phosphorylated GCN2 is done by scanning the plates in the Acumen Explorer system (TTPLabtech). The obtained data are normalised against the untreated control wells (DMSO only) and expressed as % effect values. The determination of IC50 values is done by using the Graph Pad Prism software.
Target sequence in this assay (Q9P2K8 whole entry): as the sequence (Q9P2K8 whole entry, species assumed) above

IC50 [1] | IC50 [2] | SMILES
300 to 3000 nM | 3000 to 50000 nM | CCn1cc(Nc2ncc3nnn(-c4cccc(C(N)=O)c4)c3n2)cn1 [Compound A68, 3-[5-(1-ethyl-1H-pyrazol-4-ylamino)-[1,2,3]triazolo[4,5-d]pyrimidin-3-yl]-benzamide]
< 300 nM | 300 to 3000 nM | CCn1cc(Nc2ncc3nnn(-c4ccc5ncccc5c4)c3n2)cn1 [Compound A71, (1-ethyl-1H-pyrazol-4-yl)-(3-quinolin-6-yl-3H-[1,2,3]triazolo[4,5-d]pyrimidin-5-yl)-amine]
< 300 nM | 3000 to 50000 nM | CN1CCC(n2cc(Nc3ncc4nnn(-c5ccc6cccnc6c5)c4n3)cn2)CC1 [Compound A73, [1-(1-methyl-piperidin-4-yl)-1H-pyrazol-4-yl]-(3-quinolin-7-yl-3H-[1,2,3]triazolo[4,5-d]pyrimidin-5-yl)-amine]
< 300 nM | 300 to 3000 nM | CCn1cc(-n2nnc3cnc(Nc4cnn(C5CCN(C)CC5)c4)nc32)cn1 [Compound A79, [3-(1-ethyl-1H-pyrazol-4-yl)-3H-[1,2,3]triazolo[4,5-d]pyrimidin-5-yl]-[1-(1-methyl-piperidin-4-yl)-1H-pyrazol-4-yl]-amine]
< 300 nM | 300 to 3000 nM | Fc1cc(-n2nnc3cnc(Nc4cnn(C5CCOCC5)c4)nc32)ccc1Cl [Compound A81, [3-(4-chloro-3-fluoro-phenyl)-3H-[1,2,3]triazolo[4,5-d]pyrimidin-5-yl]-[1-(tetrahydro-pyran-4-yl)-1H-pyrazol-4-yl]-amine]
< 300 nM | 3000 to 50000 nM | CCn1cc(-n2nnc3cnc(Nc4cnn(C5CCOCC5)c4)nc32)cn1 [Compound A83, [3-(1-ethyl-1H-pyrazol-4-yl)-3H-[1,2,3]triazolo[4.5-d]pyrimidin-5-yl]-[1-(tetrahydro-pyran-4-yl)-1H-pyrazol-4-yl]-amine]
< 300 nM | 300 to 3000 nM | CCn1cc(Nc2ncc3nnn(-c4ccc5c(c4)NC(=O)C5(C)C)c3n2)cn1 [Compound A84, 6-[5-(1-ethyl-1H-pyrazol-4-ylamino)-[1,2,3]triazolo[4,5-d]pyrimidin-3-yl]-3,3-dimethyl-1,3-dihydro-indol-2-one]
< 300 nM | 300 to 3000 nM | CC1(C)C(=O)Nc2cc(-n3nnc4cnc(Nc5cnn(C6CCOCC6)c5)nc43)ccc21 [Compound A85, 3,3-dimethyl-6-{5-[1-(tetrahydro-pyran-4-yl)-1H-pyrazol-4-ylamino]-[1,2,3]triazolo[4,5-d]pyrimidin-3-yl}-1,3-dihydro-indol-2-one]
< 300 nM | 300 to 3000 nM | COCCOc1ccc(-n2nnc3cnc(Nc4cnn(C5CCOCC5)c4)nc32)cc1 [Compound A87, {3-[4-(2-methoxy-ethoxy)-phenyl]-3H-[1,2.3]triazolo[4,5-d]pyrimidin-5-yl}-[1-(tetrahydro-pyran-4-yl)-1H-pyrazol-4-yl]-amine]
< 300 nM | 300 to 3000 nM | CCn1cc(Nc2ncc3nnn(-c4ccc5[nH]ncc5c4)c3n2)cn1 [Compound A91, (1-ethyl-1H-pyrazol-4-yl)-[3-(1H-indazol-5-yl)-3H-[1,2,3]triazolo[4,5-d]pyrimidin-5-yl]-amine]
< 300 nM | < 300 nM | c1nn(C2CCOCC2)cc1Nc1ncc2nnn(-c3ccc4cn[nH]c4c3)c2n1 [Compound A92, [3-(1H-indazol-6-yl)-3H-[1,2,3]triazolo[4,5-d]pyrimidin-5-yl]-[1-(tetrahydro-pyran-4-yl)-1H-pyrazol-4-yl]-amine]
< 300 nM | 3000 to 50000 nM | CN1CCC(n2cc(Nc3ncc4nnn(-c5ccc6[nH]ncc6c5)c4n3)cn2)CC1 [Compound A93, [3-(1H-indazol-5-yl)-3H-[1,2,3]triazolo[4,5-d]pyrimidin-5-yl]-[1-(1-methyl-piperidin-4-yl)-1H-pyrazol-4-yl]-amine]
< 300 nM | 300 to 3000 nM | CCOc1ccc(-n2nnc3cnc(Nc4cnn(CCC5CCNCC5)c4)nc32)cc1 [Compound A97, [3-(4-ethoxy-phenyl)-3H-[1,2,3]triazolo[4,5-d]pyrimidin-5-yl]-[1-(2-piperidin-4-yl-ethyl)-1H-pyrazol-4-yl]-amine]

The next lines start with the compound.

SMILES | IC50 [1] | IC50 [2]
CCOc1ccc(-n2nnc3cnc(Nc4cnn(CCCOC)c4)nc32)cc1 [Compound A49, [3-(4-ethoxy-phenyl)-3H-[1,2,3]triazolo[4,5-d]pyrimidin-5-yl]-[1-(3-methoxy-propyl)-1H-pyrazol-4-yl]-amine] | < 300 nM | 3000 to 50000 nM
CCOc1ccc(-n2nnc3cnc(Nc4cnn(CCOC(C)(C)C)c4)nc32)cc1 [Compound A51, [1-(2-tert-butoxy-ethyl)-1H-pyrazol-4-yl]-[3-(4-ethoxy-phenyl)-3H-[1,2,3]triazolo[4,5-d]pyrimidin-5-yl]-amine] | < 300 nM | 300 to 3000 nM
CCOc1ccc(-n2nnc3cnc(Nc4cnn(CCn5cccn5)c4)nc32)cc1 [Compound A54, [3-(4-ethoxy-phenyl)-3H-[1,2,3]triazolo[4,5-d]pyrimidin-5-yl]-[1-(2-pyrazol-1-yl-ethyl)-1H-pyrazol-4-yl]-amine] | < 300 nM | 300 to 3000 nM
COCCOc1ccc(-n2nnc3cnc(Nc4cnn(C)c4)nc32)cc1 [Compound A56, {3-[4-(2-methoxy-ethoxy)-phenyl]-3H-[1,2,3]triazolo[4,5-d]pyrimidin-5-yl}-(1-methyl-1H-pyrazol-4-yl)-amine] | < 300 nM | 300 to 3000 nM
COCCOc1ccc(-n2nnc3cnc(Nc4cnn(CCn5cccn5)c4)nc32)cc1 [Compound A65, {3-[4-(2-methoxy-ethoxy)-phenyl]-3H-[1,2,3]trtazolo[4,5-d]pyrimidin-5-yl}-[1-(2-pyrazol-1-yl-ethyl)-1H-pyrazol-4-yl]-amine] | < 300 nM | 300 to 3000 nM
CN1CCC(n2cc(Nc3ncc4nnn(-c5cccc(C(N)=O)c5)c4n3)cn2)CC1 [Compound A67, 3-{5-[1-(1-methyl-piperidin-4-yl)-1H-pyrazol-4-ylamino]-[1,2,3]triazolo[4,5-d]pyrimidin-3-yl}-benzamide] | < 300 nM | 3000 to 50000 nM
CN1CCC(n2cc(Nc3ncc4nnn(-c5ccc(C(N)=O)cc5)c4n3)cn2)CC1 [Compound A69, 4-{5-[1-(1-methyl-piperidin-4-yl)-1H-pyrazol-4-ylamino]-[1,2,3]triazolo[4,5-d]pyrimidin-3-yl}-benzamide] | < 300 nM | 300 to 3000 nM
CCn1cc(Nc2ncc3nnn(-c4ccc(C(N)=O)cc4)c3n2)cn1 [Compound A70, 4-[5-(1-ethyl-1H-pyrazol-4-ylamino)-[1,2,3]triazolo[4,5-d]pyrimidin-3-yl]-benzamide] | < 300 nM | 3000 to 50000 nM
CN1CCC(n2cc(Nc3ncc4nnn(-c5ccc6ncccc6c5)c4n3)cn2)CC1 [Compound A75, [1-(1-methyl-piperidin-4-yl)-1H-pyrazol-4-yl]-(3-quinolin-6-yl-3H-[1,2,3]triazolo[4,5-d]pyrimidin-5-yl)-amine] | < 300 nM | 300 to 3000 nM
COCCN1CCC(n2cc(Nc3ncc4nnn(-c5ccnc(OC)c5)c4n3)cn2)CC1 [Compound A76, {1-[1-(2-methoxy-ethyl)-piperidin-4-yl]-1H-pyrazol-4-yl}-[3-(2-methoxy-pyridin-4-yl)-3H-[1,2,3]triazolo[4,5-d]pyrimidin-5-yl]-amine] | < 300 nM | 3000 to 50000 nM
COc1ccc(-n2nnc3cnc(Nc4cnn(C5CCN(C)CC5)c4)nc32)nc1 [Compound A77, [3-(5-methoxy-pyridin-2-yl)-3H-[1,2,3]triazolo[4,5-d]pyrimidin-5-yl]-[1-(1-methyl-piperidin-4-yl)-1H-pyrazol-4-yl]-amine] | < 300 nM | 300 to 3000 nM
NC(=O)c1ccc(-n2nnc3cnc(Nc4cnn(C5CCOCC5)c4)nc32)cc1 [Compound A80, 4-{5-[1-(tetrahydro-pyran-4-yl)-1H-pyrazol-4-ylamino]-[1,2,3]triazolo[4,5-d]pyrimidin-3-yl}-benzamide] | 300 to 3000 nM | < 300 nM
c1cnc2ccc(-n3nnc4cnc(Nc5cnn(C6CCOCC6)c5)nc43)cc2c1 [Compound A82, (3-quinolin-6-yl-3H-[1,2,3]triazolo[4,5-d]pyrimidin-5-yl)-[1-(tetrahydro-pyran-4-yl)-1H-pyrazol-4-yl]-amine] | 300 to 3000 nM | 300 to 3000 nM
CN1CCC(n2cc(Nc3ncc4nnn(-c5ccc6[nH]c(C(F)(F)F)nc6c5)c4n3)cn2)CC1 [Compound A95, [1-(1-methyl-piperidin-4-yl)-1H-pyrazol-4-yl]-[3-(2-trifluoromethyl-1H-benzoimidazol-5-yl)-3H-[1,2,3]triazolo[4,5-d]pyrimidin-5-yl]-amine] | < 300 nM | 3000 to 50000 nM
COCCOc1ccc(-n2nnc3cnc(Nc4cnn(C5CCNC5)c4)nc32)cc1 (centres unmarked) [Compound A96, {3-[4-(2-methoxy-ethoxy)-phenyl]-3H-[1,2,3]triazolo[4,5-d]pyrimidin-5-yl}-(1-pyrrolidin-3-yl-1H-pyrazol-4-yl)-amine] | < 300 nM | 300 to 3000 nM
